{"source": "patent US8778964B2", "about": "“Hydroxy-substituted imidazo[1,2-a]-pyridinecarboxamides and their use” (Bayer Pharma Aktiengesellschaft, priority 2012, dated 2014)", "note": "Structures can show the parent of a compound that is named as a salt."}
{"tested_on": "recombinant guanylate cyclase reporter cell line", "assay": "Action on recombinant guanylate cyclase reporter cell line (MEC)", "format": "cell-based", "details": "in some cases mean values obtained from individual determinations", "experimental": "B-2. Action on Recombinant Guanylate Cyclase Reporter Cell Line\nThe cellular action of the compounds according to the invention is determined on a recombinant guanylate cyclase reporter cell line, as described in F. Wunder et al., Anal. Biochem. 339, 104-112 (2005).\nRepresentative values (MEC=minimal effective concentration) for the compounds according to the invention are shown in the following table (in some cases as mean values obtained from individual determinations): […]", "units": {"minimal effective concentration": "µM"}}
{"compound": "Cc1nc2c(OCc3c(F)cccc3F)cccn2c1C(=O)NC(CO)CCCC(F)(F)F", "note": "(single isomer, unassigned; ent-8) [Example 123, ent-8-[(2,6-Difluorobenzyl)oxy]-2-methyl-N-(6,6,6-trifluoro-1-hydroxyhexan-2-yl)imidazo[1,2-a]-pyridine-3-carboxamide]", "minimal effective concentration": 0.03}
{"compound": "Cc1nc2c(OCc3c(F)cccc3F)cccn2c1C(=O)NC(CO)CC(F)(F)F", "note": "(single isomer, unassigned; ent-8) [Example 121, ent-8-[(2,6-Difluorobenzyl)oxy]-2-methyl-N-(4,4,4-trifluoro-1-hydroxybutan-2-yl)imidazo[1,2-a]-pyridine-3-carboxamide]", "minimal effective concentration": 0.03}
{"compound": "CCCC[C@H](CO)NC(=O)c1c(C)nc2c(OCc3c(F)cccc3F)cc(C)cn12", "note": "[Example 133, 8-[(2,6-difluorobenzyl)oxy]-N-[(2R)-1-hydroxyhexan-2-yl]-2,6-dimethylimidazo[1,2-a]pyridine-3-carboxamide]", "minimal effective concentration": 0.01}
{"compound": "Cc1nc2c(OCc3c(F)cccc3F)cccn2c1C(=O)NC(C)(C)[C@H](C)O", "note": "[Example 20, 8-[(2,6-difluorobenzyl)oxy]-N-[(3S)-3-hydroxy-2-methylbutan-2-yl]-2-methylimidazo[1,2-a]-pyridine-3-carboxamide]", "minimal effective concentration": 1}
{"compound": "Cc1nc2c(OCC3CCCCC3)cccn2c1C(=O)NC(CO)CO", "note": "[Example 85, 8-(cyclohexylmethoxy)-N-(1,3-dihydroxypropan-2-yl)-2-methylimidazo[1,2-a]pyridine-3-carboxamide]", "minimal effective concentration": 0.38}
{"compound": "Cc1nc2c(OCc3ccccc3Cl)cccn2c1C(=O)NC(CO)CO", "note": "[Example 50, 8-[(2-chlorobenzyl)oxy]-N-(1,3-dihydroxypropan-2-yl)-2-methylimidazo[1,2-a]pyridine-3-carboxamide]", "minimal effective concentration": 6.5}
{"compound": "Cc1nc2c(OCc3c(F)cccc3F)cccn2c1C(=O)NC(CCCC(F)(F)F)C(C)(C)O", "note": "(racemic) [Example 150, rac-8-[(2,6-difluorobenzyl)oxy]-2-methyl-N-(7,7,7-trifluoro-2-hydroxy-2-methylheptan-3-yl)imidazo[1,2-a]pyridine-3-carboxamide]", "minimal effective concentration": 0.03}
{"compound": "Cc1nc2c(OCc3c(F)cccc3F)cccn2c1C(=O)NCC(O)COc1ccc(F)cc1", "note": "(stereo not drawn) [Example 136, 8-[(2,6-difluorobenzyl)oxy]-N-[3-(4-fluorophenoxy)-2-hydroxypropyl]-2-methylimidzao[1,2-a]pyridine-3-carboxamide]", "minimal effective concentration": 3}
{"compound": "CCCC[C@H](CO)NC(=O)c1c(C)nc2c(OCCC(C(F)(F)F)C(F)(F)F)cc(C)cn12", "note": "[Example 169, N-[(2R)-1-Hydroxyhexan-2-yl]-2,6-dimethyl-8-[4,4,4-trifluoro-3-(trifluoromethyl)butoxy]imidazo-[1,2-a]pyridine-3-carboxamide]", "minimal effective concentration": 0.3}
{"compound": "Cc1cc(OCC2CC(F)(F)C2)c2nc(C)c(C(=O)NC(CCCC(F)(F)F)C(C)(C)O)n2c1", "note": "(racemic) [Example 176, rac-8-[(3,3-Difluorocyclobutyl)methoxy]-2,6-dimethyl-N-(7,7,7-trifluoro-2-hydroxy-2-methylheptan-3-yl)imidazo[1,2-a]pyridine-3-carboxamide]", "minimal effective concentration": 3}
{"compound": "Cc1nc2c(OCc3c(F)cccc3F)cccn2c1C(=O)NC(CO)CCC(F)(F)F", "note": "(racemic) [Example 101, rac-8-[(2,6-difluorobenzyl)oxy]-2-methyl-N-(5,5,5-trifluoro-1-hydroxypentan-2-yl)-imidazo[1,2-a]pyridine-3-carboxamide trifluoroacetate]", "minimal effective concentration": 0.1}
{"compound": "Cc1nc2c(OCc3ccccc3Br)cccn2c1C(=O)NC(CO)CO", "note": "[Example 54, 8-[(2-bromobenzyl)oxy]-N-(1,3-dihydroxypropan-2-yl)-2-methylimidazo[1,2-a]pyridine-3-carboxamide]", "minimal effective concentration": 10}
{"compound": "Cc1nc2c(OCC3CCCCC3)cccn2c1C(=O)NCCO", "note": "[Example 76, 8-(cyclohexylmethoxy)-N-(2-hydroxyethyl)-2-methylimidazo[1,2-a]pyridine-3-carboxamide formate]", "minimal effective concentration": 0.3}
{"compound": "[2H]C([2H])(Oc1cccn2c(C(=O)N[C@@H](CO)CCCC)c(C)nc12)c1c(F)cccc1F", "note": "[Example 115, 8-{[(2,6-difluorophenyl)(^2H2)methyl]oxy}-N-[(2R)-1-hydroxyhexan-2-yl]-2-methylimidazo[1,2-a]pyridine-3-carboxamide]", "minimal effective concentration": 0.01}
{"compound": "C[C@@H](CO)NC(=O)c1cnc2c(OCC3CCCCC3)cccn12", "note": "[Example 59, 8-(cyclohexylmethoxy)-N-[(2S)-1-hydroxypropan-2-yl]imidazo[1,2-a]pyridine-3-carboxamide]", "minimal effective concentration": 3}
{"compound": "Cc1nc2c(OCC3CCCCC3)cccn2c1C(=O)NC1CCCC1O", "note": "(stereo not drawn) [Example 83, 8-(cyclohexylmethoxy)-N-(2-hydroxycyclopentyl)-2-methylimidazo[1,2-a]pyridine-3-carboxamide]", "minimal effective concentration": 0.3}
{"compound": "Cc1nc2c(OCc3c(F)cccc3F)cccn2c1C(=O)NC[C@@H](O)c1ccccc1", "note": "[Example 32, 8-[(2,6-difluorobenzyl)oxy]-N-[(2S)-2-hydroxy-2-phenylethyl]-2-methylimidazo[1,2-a]pyridine-3-carboxamide]", "minimal effective concentration": 1}
{"compound": "Cc1nc2c(OCC3CCCCC3)cccn2c1C(=O)N[C@@H]1CCC[C@@H]1O", "note": "(relative stereo) [Example 81, 8-(cyclohexylmethoxy)-N-[cis-2-hydroxycyclopentyl]-2-methylimidazo[1,2-a]-pyridine-3-carboxamide]", "minimal effective concentration": 0.65}
{"compound": "Cc1nc2c(OCc3c(F)cccc3F)cccn2c1C(=O)NC[C@@H]1CCCC[C@H]1O", "note": "(racemic) [Example 27, (rac)-trans-8-[(2,6-difluorobenzyl)oxy]-N-[(2-hydroxycyclohexyl)methyl]-2-methylimidazo[1,2-a]pyridine-3-carboxamide]", "minimal effective concentration": 0.3}
{"compound": "Cc1nc2c(OCc3c(F)cccc3F)cccn2c1C(=O)NCCO", "note": "[Example 21, 8-[(2,6-difluorobenzyl)oxy]-N-(2-hydroxyethyl)-2-methylimidazo[1,2-a]pyridine-3-carboxamide]", "minimal effective concentration": 1}
{"compound": "CCCC[C@H](CO)NC(=O)c1c(C)nc2c(OCc3ccccc3)cccn12", "note": "[Example 16, 8-(Benzyloxy)-N-[(2R)-1-hydroxyhexan-2-yl]-2-methylimidazo[1,2-a]pyridine-3-carboxamide]", "minimal effective concentration": 1}
{"compound": "Cc1nc2c(OCc3c(Cl)cccc3Cl)cccn2c1C(=O)NC(CO)CO", "note": "[Example 53, 8-[(2,6-dichlorobenzyl)oxy]-N-(1,3-dihydroxypropan-2-yl)-2-methylimidazo[1,2-a]-pyridine-3-carboxamide]", "minimal effective concentration": 10}
{"compound": "Cc1nc2c(OCc3c(F)cccc3F)cccn2c1C(=O)NC(CO)C(F)(F)F", "note": "(racemic) [Example 110, rac-8-[(2,6-Difluorobenzyl)oxy]-2-methyl-N-(1,1,1-trifluoro-3-hydroxypropan-2-yl)imidazo[1,2-a]pyridine-3-carboxamide]", "minimal effective concentration": 0.3}
{"compound": "Cc1nc2c(OCC3CCCCC3)cccn2c1C(=O)NC(CO)COC(C)(C)C", "note": "(stereo not drawn) [Example 94, N-(1-tert-butoxy-3-hydroxypropan-2-yl)-8-(cyclohexylmethoxy)-2-methylimidazo[1,2-a]-pyridine-3-carboxamide]", "minimal effective concentration": 3}
{"compound": "Cc1nc2c(OCC3CCCCC3)cccn2c1C(=O)NC[C@H](O)CO", "note": "[Example 68, 8-(cyclohexylmethoxy)-N-[(2S)-2,3-dihydroxypropyl]-2-methylimidazo[1,2-a]pyridine-3-carboxamide]", "minimal effective concentration": 0.03}
{"compound": "CCCC[C@H](CO)NC(=O)c1c(C)nc2c(OCc3c(C)cccc3C)cccn12", "note": "[Example 13, 8-[(2,6-dimethylbenzyl)oxy]-N-[(2R)-1-hydroxyhexan-2-yl]-2-methylimidazo[1,2-a]pyridine-3-carboxamide]", "minimal effective concentration": 3}
{"compound": "CCCC[C@H](CO)NC(=O)c1c(C)nc2c(OCc3cccc(F)c3F)cccn12", "note": "[Example 10, 8-[(2,3-difluorobenzyl)oxy]-N-[(2R)-1-hydroxyhexan-2-yl]-2-methylimidazo[1,2-a]pyridine-3-carboxamide]", "minimal effective concentration": 0.3}
{"compound": "Cc1nc2c(OCC3CCC3)cccn2c1C(=O)NCCOCCO", "note": "[Example 98, 8-(cyclobutylmethoxy)-N-[2-(2-hydroxyethoxy)ethyl]-2-methylimidazo[1,2-a]pyridine-3-carboxamide]", "minimal effective concentration": 3}
{"compound": "Cc1nc2c(OCc3c(F)cccc3F)cccn2c1C(=O)NC(C)C(O)C(F)(F)F", "note": "(single isomer, unassigned) [Example 146, 8-[(2,6-Difluorobenzyl)oxy]-2-methyl-N-(4,4,4-trifluoro-3-hydroxybutan-2-yl)imidazo[1,2-a]-pyridine-3-carboxamide]", "minimal effective concentration": 1.0}
{"compound": "Cc1nc2c(OCC3CCCCC3)cccn2c1C(=O)N[C@H](CO)C(C)C", "note": "[Example 93, 8-(cyclohexylmethoxy)-N-[(2S)-1-hydroxy-3-methylbutan-2-yl]-2-methylimidazo[1,2-a]pyridine-3-carboxamide]", "minimal effective concentration": 1}
{"compound": "Cc1nc2c(OCc3c(F)cccc3F)cccn2c1C(=O)N[C@@H](CO)CCCO", "note": "[Example 130, 8-[(2,6-difluorobenzyl)oxy]-N-[(2R)-1,5-dihydroxypentan-2-yl]-2-methylimidazo[1,2-a]pyridine-3-carboxamide]", "minimal effective concentration": 1}
{"compound": "CCC(O)CNC(=O)c1c(C)nc2c(OCCC(C(F)(F)F)C(F)(F)F)cc(C)cn12", "note": "(racemic) [Example 174, rac-N-(2-hydroxybutyl)-2,6-dimethyl-8-[4,4,4-trifluoro-3-(trifluoromethyl)butoxy]imidazo[1,2-a]pyridine-3-carboxamide]", "minimal effective concentration": 3}
{"compound": "CCCOCC(CO)NC(=O)c1c(C)nc2c(OCc3c(F)cccc3F)cccn12", "note": "(racemic) [Example 162, rac-8-[(2,6-Difluorobenzyl)oxy]-N-(1-hydroxy-3-propoxypropan-2-yl)-2-methylimidazo[1,2-a]-pyridine-3-carboxamide]", "minimal effective concentration": 0.3}
